In the assay the test system is K86415-001-R-J1-PDC complex spheroids, viability. As to the kind of experiment: Anticancer human tumor K86415-001-R-J1-PDC patient-derived lung adenocarcinoma cell line growth inhibition [RAS]. The settings on record: for viability, T/C: stronger effect = lower value. Summed up:
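Agents were tested in combination matrices in half-log decrements from a top concentration at or near clinical Cmax (10 microM if undetermined). Targets were multi-cell spheroids of tumour lines plus HUVEC and MSC stromal cells.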

The mark [1] stands for this setting: compound alone, run of 07/15/2024.

Values joined by “and” are separate entries in the source; they are usually repeats but may differ in a detail not shown here. Identical values can stand only once.

In general, IC50 refers to the concentration that gives 50% inhibition. Broadly, the viability, T/C is the ratio of treated to control.
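Note: spheroids exposed to agents for seven days before readout.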

For `C[C@@H](NC(=O)c1ncnc(N)c1Cl)c1ncc(C(=O)Nc2cc(C(F)(F)F)c(Cl)cn2)s1` + C#Cc1c(F)ccc2cc(O)cc(-c3ncc4c(N5CC6CCC(C5)N6)nc(OCC56CCCN5CC(F)C6)nc4c3F)c12, the 50% inhibitory concentration (IC50) (curve of first compound, second compound 0.0316 µM) was over 10000 nM; the IC50 (curve of first compound, second compound 0.1 µM) was over 10000 nM; the IC50 (curve of first compound, second compound 0.316 µM) was over 10000 nM; the IC50 (curve of first compound, second compound 1 µM) worked out at 7330 nM; the IC50 (curve of first compound, second compound 3.16 µM) is 183 nM; the IC50 (curve of first compound, second compound 10 µM) was under 31.6 nM. Besides, the viability, T/C by setting is: (second compound 0.0316 µM, first compound 0.0316 µM) 107%; (second compound 0.0316 µM, first compound 0.1 µM) 115%; (second compound 0.0316 µM, first compound 0.316 µM) 104%; (second compound 0.0316 µM, first compound 1 µM) 81.1%; (second compound 0.0316 µM, first compound 3.16 µM) 61.1%; (second compound 0.0316 µM, first compound 10 µM) 56.5%. Further, the viability, T/C runs as follows: (second compound 0.1 µM, first compound 0.0316 µM) 113%; (second compound 0.1 µM, first compound 0.1 µM) 112%; (second compound 0.1 µM, first compound 0.316 µM) 93%; (second compound 0.1 µM, first compound 1 µM) 79.9%; (second compound 0.1 µM, first compound 3.16 µM) 67.5%; (second compound 0.1 µM, first compound 10 µM) 56.8%. For the same molecule, the viability, T/C (second compound 0.316 µM, first compound 0.0316 µM) was 119%; the viability, T/C (second compound 0.316 µM, first compound 0.1 µM) was 108%; the viability, T/C (second compound 0.316 µM, first compound 0.316 µM) was 88.8%; the viability, T/C (second compound 0.316 µM, first compound 1 µM) is 79.8%; the viability, T/C (second compound 0.316 µM, first compound 3.16 µM) was 65.5%; the viability, T/C (second compound 0.316 µM, first compound 10 µM) was 53.6%. In addition, the viability, T/C (second compound 1 µM, first compound 0.0316 µM) is 83.9%; the viability, T/C (second compound 1 µM, first compound 0.1 µM) is 85.9%; the viability, T/C (second compound 1 µM, first compound 0.316 µM) was 69.1%; the viability, T/C (second compound 1 µM, first compound 1 µM) was 69%; the viability, T/C (second compound 1 µM, first compound 3.16 µM) is 59.7%; the viability, T/C (second compound 1 µM, first compound 10 µM) was 46.3%. The viability, T/C was 46.9% (second compound 3.16 µM, first compound 0.0316 µM); 53.5% (second compound 3.16 µM, first compound 0.1 µM); 52.3% (second compound 3.16 µM, first compound 0.316 µM); 42.6% (second compound 3.16 µM, first compound 1 µM); 38.4% (second compound 3.16 µM, first compound 3.16 µM); 30.2% (second compound 3.16 µM, first compound 10 µM). In addition, the viability, T/C reads like this: (second compound 10 µM, first compound 0.0316 µM) 19.5%; (second compound 10 µM, first compound 0.1 µM) 26%; (second compound 10 µM, first compound 0.316 µM) 23.1%; (second compound 10 µM, first compound 1 µM) 18.2%; (second compound 10 µM, first compound 3.16 µM) 19.6%; (second compound 10 µM, first compound 10 µM) 15.3%.

On to `CCC(CC)c1cc(NC2CCC(N)C2)n2nccc2n1` (stereo not drawn), for which the viability, T/C is, setting by setting: (compound 0.0316 µM) 106% and 116% (2×) and 92.8%; (compound 0.1 µM) 115% [middle of 4 runs]; (compound 0.316 µM) 122% [middle of 4 runs]; (compound 1 µM) 100% [middle of 4 runs]; (compound 3.16 µM) 3.47% [middle of 4 runs]; (compound 10 µM) 3.37% [middle of 4 runs]. For the same molecule, the IC50 (curve of compound) is 1.82 µM [middle of 4 runs].

Regarding `C#Cc1c(F)ccc2cc(O)cc(-c3ncc4c(N5CC6CCC(C5)N6)nc(OCC56CCCN5CC(F)C6)nc4c3F)c12` (stereo not drawn), the viability, T/C by setting is: (compound 0.0316 µM) 101% [middle of 8 runs]; (compound 0.1 µM) 106% [middle of 8 runs]; (compound 0.316 µM) 88.2% [middle of 8 runs]; (compound 1 µM) 65.2% [middle of 8 runs]; (compound 3.16 µM) 38.2% [middle of 8 runs]; (compound 10 µM) 17.8% [middle of 8 runs]. In addition, the IC50 under setting [1] was 1.81 µM [middle of 7 runs].

In the case of `C=CC(=O)N1CCN(c2nc(OCC3CCCN3C)nc3c(F)c(-c4nc(N)cc(C)c4C(F)(F)F)c(Cl)cc23)C(C)C1` (stereo not drawn), the viability, T/C runs as follows: (compound 0.00316 µM) 18.3% [middle of 12 runs]; (compound 0.01 µM) 13.4% [middle of 12 runs]; (compound 0.0316 µM) 11.5% [middle of 12 runs]; (compound 0.1 µM) 9.89% [middle of 12 runs]; (compound 0.316 µM) 10.8% [middle of 12 runs]; (compound 1 µM) 10.7% [middle of 11 runs]. Moreover, the IC50 under setting [1] was under 3.16 nM and the IC50 (curve of compound) is under 3.16 nM.

Take `NC1c2ccccc2OC12CCN(c1cnc3c(N4CCCc5ncccc54)n[nH]c3n1)CC2` (stereo not drawn): the viability, T/C (compound 0.0316 µM) is 46.3% [middle of 4 runs]; the viability, T/C (compound 0.1 µM) is 29.9% [middle of 4 runs]; the viability, T/C (compound 0.316 µM) is 22.7% [middle of 4 runs]; the viability, T/C (compound 1 µM) is 19.7% and 20.6% and 16.5%; the viability, T/C (compound 3.16 µM) was 21% [middle of 4 runs]; the viability, T/C (compound 10 µM) is 23.1% [middle of 4 runs]. Further, under “curve of compound”, the IC50 is under 31.6 nM.

For the molecule `Nc1ccn(C2OC(CO)C(O)C2(F)F)c(=O)n1` (stereo not drawn), the viability, T/C is 106% [middle of 4 runs] (compound 0.00316 µM); 97.5% [middle of 4 runs] (compound 0.01 µM); 78.7% [middle of 4 runs] (compound 0.0316 µM); 61.3% [middle of 4 runs] (compound 0.1 µM); 31.2% [middle of 4 runs] (compound 0.316 µM); 22.3% [middle of 4 runs] (compound 1 µM). Besides, the IC50 (curve of compound) is 136 nM [middle of 4 runs].

These data come from PubChem BioAssay AID2060893 (Molecular Pharmacology Branch, DTP, NCI, 2025).
